Data published in patent US9617343B2, “Methods and compositions for treating lupus” (GENZYME CORPORATION, priority 2009, dated 2017).

Assays:
Format in all cases: in vivo, mouse
NZB/NZWF1 mice [1] = details: antibodies two doses ~3 mg/kg i.p., cyclophosphamide 50 mg/kg weekly injections, to 43 weeks of age
NZB/NZWF1 mice [2] = test: Kidney section staining for CD4+, CD8+ and FoxP3+ cells; details: kidney sections of NZB/NZWF1 mice scored blindly on a scale of 0-4
NZB/NZWF1 mice [3] = test: Titers of serum IgG antibodies to dsDNA by ELISA; details: antibody two i.p. injections ~3 mg/kg, cyclophosphamide 50 mg/kg weekly
NZB/NZWF1 mice [4] = test: Histological examination of kidneys; details: trend, not statistically significant
NZB/NZWF1 mice [5] = test: Levels of proteinuria (colorimetric total urine protein assay); details: by the end of the study (43 weeks), antibodies two i.p. injections ~3 mg/kg, cyclophosphamide 50 mg/kg weekly

O=P1(N(CCCl)CCCl)NCCCO1 (centres unmarked) [cyclophosphamide, Cyclophosphamide]
survival (NZB/NZWF1 mice [1]): 80% | CD4+ cells infiltrating the kidneys (NZB/NZWF1 mice [2]): significant decrease | CD8+ cells infiltrating the kidneys (NZB/NZWF1 mice [2]): significant decrease | FoxP3+ cells infiltrating the kidneys (NZB/NZWF1 mice [2]): significant decrease | effect on development of autoantibodies against dsDNA (serum IgG titers) (NZB/NZWF1 mice [3]): effectively reduced | median glomerulopathy scores (NZB/NZWF1 mice [4]; compared to rat IgG and vehicle control groups): reduced | interstitial inflammation (NZB/NZWF1 mice [4]): Reduced | mice that reached severe proteinuria (>500 mg/dL/day) (NZB/NZWF1 mice [5]): 20%
